Experimental findings from patent US9365512B2, “Isoindoline derivatives, pharmaceutical compositions containing them, and their use in therapy” (AbbVie Deutschland GmbH & Co. KG, priority 2012, dated 2016) are described below.

Bounds are passed on as bounds.

The experiment has as its target T1, human GlyT1c transporter (Homo sapiens, UniProt P48067).
T1 construct: expressed in transfected cells; host or cells: CHO cells (recombinant; membranes)
T1 sequence (P48067 1-706): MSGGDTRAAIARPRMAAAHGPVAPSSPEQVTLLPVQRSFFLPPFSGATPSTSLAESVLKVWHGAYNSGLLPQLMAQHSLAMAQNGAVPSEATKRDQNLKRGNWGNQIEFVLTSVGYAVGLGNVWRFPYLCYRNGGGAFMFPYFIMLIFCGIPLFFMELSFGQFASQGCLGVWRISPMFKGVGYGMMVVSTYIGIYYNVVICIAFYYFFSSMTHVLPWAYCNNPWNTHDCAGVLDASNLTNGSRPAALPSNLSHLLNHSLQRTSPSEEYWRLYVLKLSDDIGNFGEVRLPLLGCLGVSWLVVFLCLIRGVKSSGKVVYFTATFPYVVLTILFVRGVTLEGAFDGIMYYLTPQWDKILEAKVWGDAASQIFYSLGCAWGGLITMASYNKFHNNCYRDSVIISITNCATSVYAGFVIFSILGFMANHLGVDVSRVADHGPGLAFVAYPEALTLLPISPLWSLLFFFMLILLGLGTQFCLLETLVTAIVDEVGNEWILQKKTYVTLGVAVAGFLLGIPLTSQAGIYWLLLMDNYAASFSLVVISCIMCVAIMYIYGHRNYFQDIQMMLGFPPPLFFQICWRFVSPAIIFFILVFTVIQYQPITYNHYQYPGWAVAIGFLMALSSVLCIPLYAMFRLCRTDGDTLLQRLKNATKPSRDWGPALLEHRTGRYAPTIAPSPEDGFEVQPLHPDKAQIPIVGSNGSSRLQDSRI
Description: Radioligand binding assay using recombinant CHO cell membranes expressing human GlyT1. The note with it: read-out: radioligand binding Kiapp. How it is done: 2. Radioligand Binding Assays Using Recombinant CHO Cell Membranes Expressing Human GlyT1:
Radioligand binding to human GlyT1c transporter-expressing membranes was determined as described in Mezler et al., Molecular Pharmacology 74:1705-1715, 2008.
As to `Cn1cnc(S(=O)(=O)NCCOc2ccc3c(c2)C(Cc2ccccc2)NC3=O)c1` (stereo not drawn) [Example 1, N-[2-(3-benzyl-1-oxo-isoindolin-5-yl)oxyethyl]-1-methyl-1H-imidazole-4-sulfonamide], the Ki was < 1000 nM. As for `Cn1cnc(S(=O)(=O)NCc2ccc3c(c2)C(Cc2ccccc2)NC3=O)c1` (stereo not drawn) [Example 2, N-[(3-Benzyl-1-oxo-isoindolin-5-yl)methyl]-1-methyl-1H-imidazole-4-sulfonamide], the Ki is < 1000 nM. `CC(C)(C)OC(=O)NCCOc1ccc2c(c1)C(Cc1ccccc1)NC2=O` (stereo not drawn) [Example 3, [2-(3-Benzyl-1-oxo-2,3-dihydro-1H-isoindol-5-yloxy)-ethyl]-carbamic acid tert-butyl ester]: the Ki was > 10000 nM. In the case of `Cn1cc(S(=O)(=O)NCCOc2ccc3c(c2)C(Cc2ccccc2)NC3=O)cn1` (stereo not drawn) [Example 6, N-[2-(3-Benzyl-1-oxo-isoindolin-5-yl)oxyethyl]-1-methyl-1H-pyrazole-4-sulfonamide] it was < 10000 nM; in that of `Cn1cnc(S(=O)(=O)NCCOc2ccc3c(c2)C(C)(Cc2ccccc2)NC3=O)c1` (stereo not drawn) [Example 8, N-[2-(3-Benzyl-3-methyl-1-oxo-isoindolin-5-yl)oxyethyl]-1-methyl-1H-imidazole-4-sulfonamide], < 10000 nM; in that of `Cn1cc(S(=O)(=O)NCCOc2ccc3c(c2)C(C)(Cc2ccccc2)NC3=O)cn1` (stereo not drawn) [Example 9, N-[2-(3-Benzyl-3-methyl-1-oxo-isoindolin-5-yl)oxyethyl]-1-methyl-1H-pyrazole-4-sulfonamide], < 10000 nM. For the compound `Cn1cc(S(=O)(=O)NCCOc2ccc3c(c2)C(C)(Cc2ccccc2)NC3)cn1` (stereo not drawn) [Example 10, N-[2-(3-Benzyl-3-methyl-isoindolin-5-yl)oxyethyl]-1-methyl-1H-pyrazole-4-sulfonamide], the Ki is < 100 nM.

With `Cn1cnc(S(=O)(=O)NCCOc2ccc3c(c2)C(C)(Cc2ccccc2)NC3)c1` (stereo not drawn) [Example 11, N-[2-(3-Benzyl-3-methyl-isoindolin-5-yl)oxyethyl]-1-methyl-imidazole-4-sulfonamide], the Ki is < 100 nM.

In the case of `Cn1cc(S(=O)(=O)NCCOc2ccc3c(c2)C(Cc2ccccc2)N(C(=O)C(F)(F)F)C3)cn1` (stereo not drawn) [Example 12], the Ki was < 1000 nM.

As to `CN1Cc2ccc(OCCNS(=O)(=O)c3cnn(C)c3)cc2C1Cc1ccccc1` (stereo not drawn) [Example 13, N-[2-(3-Benzyl-2-methyl-isoindolin-5-yl)oxyethyl]-1-methyl-1H-pyrazole-4-sulfonamide; 2,2,2-trifluoroacetic acid], the Ki was < 10 nM. In the case of `CN1Cc2ccc(OCCNS(=O)(=O)c3cn(C)cn3)cc2C1Cc1ccccc1` (stereo not drawn) [Example 14, N-[2-(3-Benzyl-2-methyl-isoindolin-5-yl)oxyethyl]-1-methyl-1H-imidazole-4-sulfonamide; 2,2,2-trifluoroacetic acid] it was < 100 nM. In the case of `Cn1cc(S(=O)(=O)NCCOc2ccc3c(c2)C(Cc2ccccc2)N(CC(F)(F)F)C3)cn1` (stereo not drawn) [Example 15, N-[2-[3-Benzyl-2-(2,2,2-trifluoroethyl)isoindolin-5-yl]oxyethyl]-1-methyl-1H-pyrazole-4-sulfonamide; 2,2,2-trifluoroacetic acid], the Ki is < 1000 nM. `Cn1cc(S(=O)(=O)NCCOc2ccc3c(c2)C(Cc2ccccc2)N(C2COC2)C3)cn1` (stereo not drawn) [Example 16, N-[2-[3-Benzyl-2-(oxetan-3-yl)isoindolin-5-yl]oxyethyl]-1-methyl-1H-pyrazole-4-sulfonamide; 2,2,2-trifluoroacetic acid]: the Ki is < 100 nM. Turning to `CC1(Cc2ccccc2)NC(=O)c2ccc(OCCNS(=O)(=O)CC3CC3)cc21` (stereo not drawn) [Example 17, N-[2-(3-Benzyl-3-methyl-1-oxo-isoindolin-5-yl)oxyethyl]-1-cyclopropyl-methanesulfonamide], the Ki was < 10000 nM. In the case of `CC1(Cc2ccccc2)NCc2ccc(OCCNS(=O)(=O)CC3CC3)cc21` (stereo not drawn) [Example 18, N-[2-(3-Benzyl-3-methyl-isoindolin-5-yl)oxyethyl]-1-cyclopropyl-methanesulfonamide; 2,2,2-trifluoroacetic acid] it was < 1000 nM. Turning to `Cn1cnc(S(=O)(=O)NCCOc2cc3c(cc2F)C(=O)NC3Cc2ccccc2)c1` (stereo not drawn) [Example 19, N-[2-(3-Benzyl-6-fluoro-1-oxo-isoindolin-5-yl)oxyethyl]-1-methyl-1H-imidazole-4-sulfonamide], the Ki is < 1000 nM. In the case of `CN1Cc2cc(F)c(OCCNS(=O)(=O)CC3CC3)cc2C1Cc1ccccc1` (stereo not drawn) [Example 20, N-(2-(3-Benzyl-6-fluoro-2-methylisoindolin-5-yloxy)ethyl)-1-cyclopropyl-methanesulfonamide] it was < 1000 nM; in that of `Cn1cnc(S(=O)(=O)NCCOc2cc3c(cc2F)CNC3Cc2ccccc2)c1` (stereo not drawn) [Example 21, 1-Methyl-1H-imidazole-4-sulfonic acid [2-(3-benzyl-6-fluoro-2,3-dihydro-1H-isoindol-5-yloxy)-ethyl]-amide], < 100 nM; in that of `O=C1NC(Cc2ccccc2)c2cc(OCCNS(=O)(=O)CC3CC3)c(F)cc21` (stereo not drawn) [Example 22, N-[2-(3-Benzyl-6-fluoro-1-oxo-2,3-dihydro-1H-isoindol-5-yloxy)-ethyl]-C-cyclopropyl-methanesulfonamide], < 10000 nM.

On to `O=S(=O)(CC1CC1)NCCOc1cc2c(cc1F)CNC2Cc1ccccc1` (stereo not drawn) [Example 23, N-[2-(3-Benzyl-6-fluoro-2,3-dihydro-1H-isoindol-5-yloxy)-ethyl]-C-cyclopropyl-methanesulfonamide], for which the Ki is < 1000 nM. Regarding `CCS(=O)(=O)NCCOc1cc2c(cc1F)C(=O)NC2Cc1ccccc1` (stereo not drawn) [Example 24, Ethanesulfonic acid [2-(3-benzyl-6-fluoro-1-oxo-2,3-dihydro-1H-isoindol-5-yloxy)-ethyl]-amide], the Ki is < 10000 nM.

In the case of `CCS(=O)(=O)NCCOc1cc2c(cc1F)CNC2Cc1ccccc1` (stereo not drawn) [Example 25, Ethanesulfonic acid [2-(3-benzyl-6-fluoro-2,3-dihydro-1H-isoindol-5-yloxy)-ethyl]-amide], the Ki was < 10000 nM.

`O=C1NC(Cc2ccccc2)c2cc(CNS(=O)(=O)CC3CC3)ccc21` (stereo not drawn) [Example 26, N-(3-Benzyl-1-oxo-2,3-dihydro-1H-isoindol-5-ylmethyl)-C-cyclopropyl-methanesulfonamide]: the Ki is < 10000 nM. `CCCS(=O)(=O)NCc1ccc2c(c1)C(Cc1ccccc1)NC2=O` (stereo not drawn) [Example 28, Propane-1-sulfonic acid (3-benzyl-1-oxo-2,3-dihydro-1H-isoindol-5-ylmethyl)-amide]: the Ki is < 10000 nM. Regarding `O=S(=O)(CC1CC1)NCc1ccc2c(c1)C(Cc1ccccc1)NC2` (stereo not drawn) [Example 29, N-(3-Benzyl-2,3-dihydro-1H-isoindol-5-ylmethyl)-C-cyclopropyl-methanesulfonamide], the Ki was < 10000 nM.

In the case of `CCS(=O)(=O)NCc1ccc2c(c1)C(Cc1ccccc1)NC2` (stereo not drawn) [Example 30, Ethanesulfonic acid (3-benzyl-2,3-dihydro-1H-isoindol-5-ylmethyl)-amide], the Ki was < 100000 nM. Regarding `CCCS(=O)(=O)NCc1ccc2c(c1)C(Cc1ccccc1)NC2` (stereo not drawn) [Example 31, Propane-1-sulfonic acid (3-benzyl-2,3-dihydro-1H-isoindol-5-ylmethyl)-amide], the Ki is < 10000 nM.
